Measured values from PubChem BioAssay AID743417 (Broad Institute, 2014).
Results filed as inconclusive are left out. Active and inactive are the calls of the source.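 The calls were made as follows: active = compounds lowering the luciferase signal with a fitted half-maximal dose at most twice their top valid dose (cut at about 30 µM in these data); inconclusive = flat fits with moderate signal loss, or poor fits; inactive = the rest.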

tested on: Clone20 osteoblast Shn3 3'UTR firefly luciferase, 24 h; experiment: Schnurri-3 3'UTR-luciferase signal suppressors – cell-based, Clone20 osteoblasts, luminescence, dry powder, set 2, dose response (AID 743417)

Q: CCCC(=O)NC(c1ccc(Cl)cc1Cl)c1ccc2cccnc2c1O (stereo not drawn) was tested. Which AC50 did it give?
A: 0.638 µM

Q: How did the AC50 turn out when CC1CC(C)(O)CC(C(O)CC2CC(=O)NC(=O)C2)C1=O (stereo not drawn) was run?
A: 0.339 µM

Q: Which AC50 does the source give for FC(F)(F)c1cccc(NC(=S)NC(c2ccccc2)c2ccccc2)c1 here?
A: 7.17 µM

Q: How did the AC50 turn out when O=c1c2ccccc2nc2n1C(CSCc1cccc(C(F)(F)F)c1)CS2 (stereo not drawn) was run?
A: 1.68 µM

Q: Which AC50 does the source give for CCC(CC)CN1C(N(C)C)=NC[C@@H]1CC(C)C here?
A: 0.717 µM

Q: CCN(C(=O)C1CCN(c2nc(-c3ccc(OC)cc3)no2)CC1)c1ccc(OC)cc1 was tested. Which AC50 did it give?
A: 3.17 µM

Q: For Cc1cc(C)nc(/N=C(\N)Nc2ccc(-c3ccccc3)cc2)n1, which AC50 is on record?
A: 4.45 µM

Q: With CC[C@H]1CN2CCc3cc(OC)c(OC)cc3[C@@H]2C[C@@H]1C[C@H]1NCCc2cc(OC)c(OC)cc21 as the molecule, how does the AC50 read?
A: < 0.26 µM

Q: How did the AC50 turn out when CCC(=O)c1cn(CC(=O)Nc2cccc(C)c2C)c2ccccc12 was run?
A: 1.52 µM

Q: For Cc1cc(C)c2nc(NNC(=O)c3ccc(S(=O)(=O)N4CCc5ccccc5C4)cc3)sc2c1, which AC50 is on record?
A: 1.98 µM

Q: For Oc1c(CN2CCN(c3ccccc3)CC2)cc(Br)c2cccnc12, which AC50 is on record?
A: 1.92 µM

Q: O=C(CC(O)(C(F)(F)F)C(F)(F)F)Nc1ccc(Cl)c(Cl)c1 was tested. Which AC50 did it give?
A: 4.97 µM

Q: For CC(C)=CCC/C(C)=C/CNC(=O)C[C@H]1C[C@H](C(=O)N2CCOCC2)[C@@]2(C)c3[nH]c4cc(CCC(=O)N(C)C)ccc4c3CCN2C1=O, which AC50 is on record?
A: 1.11 µM

Q: Which AC50 does the source give for OC(CNCCC1C=Nc2ccccc21)Cn1c2ccc(Cl)cc2c2cc(Cl)ccc21 (stereo not drawn) here?
A: 5.11 µM

Q: With CCc1nnc(NC(=O)c2nc(S(=O)(=O)Cc3ccccc3)ncc2Cl)s1 as the molecule, how does the AC50 read?
A: 2.72 µM

Q: O=C(c1cc(COc2cccc3cnccc23)on1)N1CCCC(CCCO)C1 (stereo not drawn) was tested. Which AC50 did it give?
A: 0.519 µM

Q: How did the AC50 turn out when Oc1c(CN2CCOCC2)cc(COCc2ccccc2)c2cccnc12 was run?
A: 1.28 µM

Q: With Cc1cc(Cl)n2c(nc3cc(F)c(F)cc32)c1C#N as the molecule, how does the AC50 read?
A: 3.56 µM

Q: Which AC50 does the source give for NS(=O)(=O)c1ccc(CCNCc2cc(Br)ccc2OCc2ccccc2F)cc1 here?
A: 4.65 µM

Q: CN(CC(=O)Nc1cccc(S(=O)(=O)N2CCOCC2)c1)CC(=O)Nc1ccc(Cl)c(C(F)(F)F)c1 was tested. Which AC50 did it give?
A: 2.4 µM

Q: With Cc1ccc(S(=O)(=O)N2CCN(c3ncnc4sccc34)CC2)cc1C as the molecule, how does the AC50 read?
A: 3.53 µM

Q: With CCC1CCCCN1C(=O)c1cc(COc2ccc3ncccc3c2)on1 (stereo not drawn) as the molecule, how does the AC50 read?
A: 0.46 µM

Q: How did the AC50 turn out when CCc1nnc(NC(=O)c2nc(S(=O)(=O)Cc3cccc(C)c3)ncc2Cl)s1 was run?
A: 2.51 µM

Q: Which AC50 does the source give for Cn1nc(-c2ccccn2)nc2c(=O)n(C)c(=O)nc1-2 here?
A: 0.493 µM

Q: For CC(C)(C)NC(=O)CSc1nc2ccc(NC(=O)CSc3nnnn3Cc3ccccc3)cc2s1, which AC50 is on record?
A: 3.26 µM

Q: COc1ccc(NS(=O)(=O)c2ccc(N3CCOCC3)c(N)c2)cc1 was tested. Which AC50 did it give?
A: 1.08 µM

Q: For Cc1sc2ncnc(NCC(C)(C)N3CCOCC3)c2c1C, which AC50 is on record?
A: 1.36 µM

Q: COc1ccccc1N(C)S(=O)(=O)c1ccc(C(=O)Nc2cc(F)ccc2C)cc1 was tested. Which AC50 did it give?
A: 13.8 µM

Q: How did the AC50 turn out when CCOC(=O)c1cnc(-n2nc(C)cc2C)nc1NC1CCCC1 was run?
A: 4.4 µM

Q: Which AC50 does the source give for NC(Cc1ccc(Cl)cc1)c1csc(NC(=O)NCC2CCCCC2)n1 (stereo not drawn) here?
A: 6.58 µM

Q: Which AC50 does the source give for O=C(NNC(=O)c1cccnc1SCc1cccc([N+](=O)[O-])c1)c1ccccn1 here?
A: 1.9 µM

Q: With CSc1nnc(NC(=O)c2nc(S(=O)(=O)Cc3ccc(C)cc3)ncc2Cl)s1 as the molecule, how does the AC50 read?
A: 3.18 µM

Q: With CCOc1ccc2nc3cc(NCc4ccc(OC)cc4)ccc3c(N)c2c1 as the molecule, how does the AC50 read?
A: 6.69 µM

Q: For Oc1ccc(-c2csc(Nc3cccc4ccccc34)n2)cc1O, which AC50 is on record?
A: 1.58 µM

Q: For Cc1ccc(-c2nc(NC(=O)c3nn(C)cc3[N+](=O)[O-])sc2C)cc1, which AC50 is on record?
A: 1.3 µM

Q: With CCS(=O)(=O)c1ccc2oc(SCC(=O)N3CCCCC3)nc2c1 as the molecule, how does the AC50 read?
A: > 70 µM (inactive)

Q: How did the AC50 turn out when CC(C)(C)c1ccc(NC(=O)COc2ccc(-n3ccnc3)cc2)cc1 was run?
A: 5.27 µM

Q: Which AC50 does the source give for CC(C)n1c(/C=C/[C@H](O)C[C@H](O)CC(=O)O)c(-c2ccc(F)cc2)c2ccccc21 here?
A: 1.42 µM

Q: CN(C)CCCNc1c2ccccc2nc2ccccc12 was tested. Which AC50 did it give?
A: 3.22 µM

Q: How did the AC50 turn out when CCOC(=O)c1c(NC(=O)C2c3ccccc3Oc3ccccc32)sc(C(C)=O)c1C was run?
A: 4.67 µM

Q: How did the AC50 turn out when COCCn1c(C)cc(C2=NNC(=NC3CC3)SC2)c1C was run?
A: < 0.26 µM

Q: COc1ccccc1CNc1nc(NCC2CC2)nc2ccsc12 was tested. Which AC50 did it give?
A: 4.16 µM

Q: For COC(=O)C1=C(c2ccc(F)cc2OCc2ccccc2)C[C@@H]2CC[C@H]1N2C(=O)NC1Cc2ccccc2C1, which AC50 is on record?
A: 8 µM

Q: O=C(/C=C/c1cccc([N+](=O)[O-])c1)n1cnc2ccccc21 was tested. Which AC50 did it give?
A: 0.594 µM

Q: How did the AC50 turn out when O=[N+]([O-])c1cccc(S(=O)(=O)NCc2ccncc2)c1 was run?
A: 3.09 µM

Q: How did the AC50 turn out when CCC(=O)c1ccc(OCC(O)Cn2c(C)nc3ccccc32)cc1 (stereo not drawn) was run?
A: 2.28 µM

Q: Which AC50 does the source give for COc1ccc(CC(=O)Nc2cccc(S(=O)(=O)N3CCCCCC3)c2)cc1OC here?
A: 2.27 µM

Q: C/C1=C\[C@@H](C)C/C=C/[C@H]2[C@@H]3O[C@]3(C)[C@@H](C)[C@H]3[C@H](Cc4c[nH]c5ccccc45)NC(=O)[C@]32C(=O)/C=C/C(=O)[C@@H]1O was tested. Which AC50 did it give?
A: 6.44 µM

Q: How did the AC50 turn out when CN(CCOc1ccc(Cl)cc1)C(=O)c1cccc(S(=O)(=O)N2CCN(c3ccc(F)cc3)CC2)c1 was run?
A: 1.77 µM

Q: CC(C)c1ccc(Oc2cccc3c2S(=O)(=O)N(C2CCCC2)CC(COCc2ccccc2)O3)cc1 (stereo not drawn) was tested. Which AC50 did it give?
A: 15.5 µM

Q: For N#Cc1cc(-c2ccccc2)[nH]c1-c1nccc2ccccc12, which AC50 is on record?
A: 3.42 µM

Q: Which AC50 does the source give for CCC(=O)NC(c1ccc(C)cc1)c1ccc2cccnc2c1O (stereo not drawn) here?
A: 0.704 µM

Q: How did the AC50 turn out when CCCCOCCCNc1ncnc2c1[nH]c1ccccc12 was run?
A: 1.05 µM
